In patent publication US20200123175A1, “NOVEL ISOTHIAZOLO-BASED BICYCLES, PROCESSES FOR THEIR PREPARATION AND THEIR USE AS HERBICIDES AND/OR PLANT GROWTH REGULATORS” (Bayer CropScience Aktiengesellschaft, priority 2017, published 2020):

How the values were obtained:
Settings in all cases: dosage 320 g/ha
ABUTH = test: Herbicidal action post-emergence (PO); format: in vivo, Abutilon theophrasti
VIOTR [1] = test: Herbicidal action post-emergence (PO); format: in vivo, Viola tricolor
AMARE [2] = test: Herbicidal action pre-emergence (PE); format: in vivo, Amaranthus retroflexus
ECHCG = test: Herbicidal action pre-emergence (PE); format: in vivo, Echinochloa crus-galli
POLCO = test: Herbicidal action pre-emergence (PE); format: in vivo, Polygonum convolvulus
SETVI [3] = test: Herbicidal action pre-emergence (PE); format: in vivo, Setaria viridis
VIOTR [4] = test: Herbicidal action pre-emergence (PE); format: in vivo, Viola tricolor
MATIN = test: Herbicidal action pre-emergence (PE); format: in vivo, Matricaria inodora
AMARE [5] = test: Herbicidal action post-emergence (PO); format: in vivo, Amaranthus retroflexus
SETVI [6] = test: Herbicidal action post-emergence (PO); format: in vivo, Setaria viridis
PHBPU = test: Herbicidal action post-emergence (PO); format: in vivo, Pharbitis purpurea

SMILES	ABUTH (ABUTH)	VIOTR (VIOTR [1])	AMARE (AMARE [2])	ECHCG (ECHCG)	POLCO (POLCO)	SETVI (SETVI [3])	VIOTR (VIOTR [4])	MATIN (MATIN)	AMARE (AMARE [5])	SETVI (SETVI [6])	PHBPU (PHBPU)
O=C(Nc1nsc2c(=O)n(Cc3ccc(F)cc3F)cnc12)C(F)(F)C(F)(F)Cl [Example I-76]	80	100	100	90	100	100	100	100	100	–	–
Nc1nsc2c1NCN(CC1CCCC1)C2=O [Example I-63]	100	100	100	100	100	100	100	100	100	–	–
O=C(CCl)Nc1nsc2c(=O)n(CC3CCCCC3)cnc12 [Example I-56]	–	–	100	100	100	100	100	90	–	–	–
Nc1nsc2c(=O)n(CC3CCCCCC3)cnc12 [Example I-31]	–	–	100	90	100	100	100	100	–	–	–
O=C(Nc1nsc2c(=O)n(Cc3ccc(F)cc3F)cnc12)C(F)(F)F [Example I-85]	80	100	100	100	100	100	100	100	100	100	100
O=C(Nc1nsc2c(=O)n(Cc3ccc(F)cc3F)cnc12)C(F)(Cl)C(F)(F)F (stereo not shown) [Example I-77]	–	–	100	80	100	100	100	100	–	–	–
CCCC(=O)Nc1nsc2c(=O)n(CC3CCCCC3)cnc12 [Example I-45]	100	90	100	100	100	100	100	100	100	–	–
Nc1nsc2c1NCN(Cc1ccc(F)cc1F)C2=O [Example I-42]	80	100	100	100	100	100	100	100	100	100	100
Nc1nsc2c1NCN(Cc1ccc(F)cc1)C2=O [Example I-64]	90	80	100	100	90	100	100	100	100	–	–
O=C(Nc1nsc2c(=O)n(CC3CCCCC3)cnc12)C(F)(F)C(F)(F)Cl [Example I-68]	100	100	100	100	100	100	100	100	100	100	100
Cc1nn(CC2CCCCC2)c(=O)c2snc(N)c12 [Example I-75, 3-amino-6-(cyclohexylmethyl)-4-methyl-isothiazolo[4,5-d]pyridazin-7-one]	–	–	100	90	90	100	90	90	–	–	–
CC(c1ccccc1)n1cnc2c(NC(=O)C3CC3)nsc2c1=O (stereo not shown) [Example I-40]	100	100	–	–	–	–	–	–	100	90	100
Nc1nsc2c1NCN(CC1CCCCC1)C2=O [Example I-61]	100	100	100	100	100	100	100	100	100	100	90
Nc1nsc2c(=O)n(CC3CCCCC3)cnc12 [Example I-17]	90	100	100	100	100	100	100	100	100	100	100
CCC(=O)Nc1nsc2c(=O)n(Cc3ccc(F)cc3F)cnc12 [Example I-84]	100	100	100	100	100	100	100	100	100	100	100
COC(=O)CC(=O)Nc1nsc2c(=O)n(CC3CCCCC3)cnc12 [Example I-71]	100	100	100	100	100	100	100	100	100	100	100
CC(=O)Nc1nsc2c(=O)n(CC3CCCCC3)cnc12 [Example I-55]	100	100	100	100	100	100	100	100	100	–	–
Nc1nsc2c(=O)n(CC3=CCCCC3)cnc12 [Example I-29]	80	100	100	100	100	100	100	100	100	100	80
COC(=O)C(=O)Nc1nsc2c(=O)n(Cc3ccc(F)cc3F)cnc12 [Example I-81]	–	–	100	100	100	90	100	100	–	–	–
O=C(CC(F)(F)F)Nc1nsc2c(=O)n(CC3CCCCC3)cnc12 [Example I-73]	100	100	100	100	100	100	100	100	100	–	–
CCC(=O)Nc1nsc2c(=O)n(CC3CCCCC3)cnc12 [Example I-54]	100	90	100	100	100	100	100	100	100	–	–
O=C(Nc1nsc2c(=O)n(Cc3ccc(F)cc3F)cnc12)C(F)(F)C(F)(F)F [Example I-78]	80	100	100	100	100	100	100	100	100	100	100
COCC(=O)Nc1nsc2c(=O)n(CC3CCCCC3)cnc12 [Example I-69]	90	100	100	100	100	100	100	100	100	100	100
Nc1nsc2c1NCN(CC1CCCCO1)C2=O (stereo not shown) [Example I-43]	–	–	100	100	100	90	100	90	–	–	–
O=C(Nc1nsc2c(=O)n(CC3CCCCC3)cnc12)C(F)(Cl)C(F)(F)F (stereo not shown) [Example I-67]	–	–	100	100	100	100	100	100	–	–	–
O=C(CC(F)(F)F)Nc1nsc2c(=O)n(Cc3ccc(F)cc3F)cnc12 [Example I-82]	–	–	100	100	100	100	100	100	–	–	–
COCC(=O)Nc1nsc2c(=O)n(Cc3ccc(F)cc3F)cnc12 [Example I-83]	–	–	100	100	90	100	100	100	–	–	–
O=C(Nc1nsc2c(=O)n(CC3CCCCC3)cnc12)C(F)(F)C(F)(F)C(F)(F)F [Example I-58]	90	100	100	100	90	100	100	90	100	–	–
O=C(Nc1nsc2c(=O)n(CC3CCCCC3)cnc12)C(F)(F)C(F)(F)F [Example I-57]	100	100	100	100	100	100	100	100	100	–	–
